Source: ChEMBL document CHEMBL1201862, “PubChem BioAssay data set” (2004)
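Grown in 96-well plates, cells were treated for 48 hours with each compound at five concentrations. Insufficient inhibition: endpoint recorded as highest concentration tested. Here, GI50 denotes the concentration required for 50% inhibition of growth.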 Activity calls are given as the source filed them. Rule as the data show it: active = GI50 up to about 1.1 µM and inactive = higher.

Experiments:
Experiment in all cases: NCI anticancer screen, dose series, 48 h
KM12 = test system: KM12
HL-60 = test system: HL-60
SNB-19 = test system: SNB-19
SW-620 = test system: SW-620
HCC 2998 = test system: HCC 2998
RPMI-8226 = test system: RPMI-8226
SR = test system: SR
NCI-H226 = test system: NCI-H226
COLO 205 = test system: COLO 205
OVCAR-4 = test system: OVCAR-4
SN12C = test system: SN12C
SK-OV-3 = test system: SK-OV-3
MOLT-4 = test system: MOLT-4
NCI-H23 = test system: NCI-H23
TK-10 = test system: TK-10
A549 = test system: A549
HT-29 = test system: HT-29
M19-MEL = test system: M19-MEL
SK-MEL-28 = test system: SK-MEL-28
786-0 = test system: 786-0

Measured: GI50

COC(=O)C1=C(c2cc(OC)c(OC)c(OC)c2)OC(c2cc(OC)c(OC)c(OC)c2)C1COC(C)=O (stereo not given)
inactive: KM12 51.8 µM | HL-60 10.3 µM | SNB-19 > 100 µM | SW-620 87.5 µM | HCC 2998 50.9 µM | RPMI-8226 29.1 µM | SR 16.7 µM | NCI-H226 46.1 µM | COLO 205 18.2 µM | OVCAR-4 29.6 µM | SN12C 85.1 µM | SK-OV-3 44.8 µM | MOLT-4 20.8 µM | NCI-H23 33.7 µM | TK-10 42.4 µM | A549 51.4 µM | HT-29 35.5 µM | M19-MEL 32.1 µM | SK-MEL-28 > 100 µM | 786-0 26.1 µM

CCc1cccc(CC)c1NC(=O)/C(Cl)=C(/Cl)C(=O)O
inactive: KM12 > 100 µM | HL-60 5.05 µM | SNB-19 > 100 µM | SW-620 21.2 µM | HCC 2998 > 48.2 µM | RPMI-8226 32.1 µM | SR > 44.3 µM | NCI-H226 > 100 µM | COLO 205 13.9 µM | OVCAR-4 17.2 µM | SN12C 31.1 µM | SK-OV-3 > 100 µM | MOLT-4 9.25 µM | NCI-H23 38.3 µM | TK-10 34 µM | A549 > 69.5 µM | HT-29 35 µM | M19-MEL 31.6 µM | SK-MEL-28 35.3 µM | 786-0 > 42.1 µM
